From ChEMBL document CHEMBL4699427, “A3- and A2B-fluorocorroles: synthesis, X-ray characterization and antiviral activity evaluation against human cytomegalovirus infection” (RSC Med Chem, 2020) come the findings set out here.

Data set [1] has as its system Human betaherpesvirus 5. The experiment in a line: Antiviral activity against human Cytomegalovirus infected in human ARPE-19 cells assessed as reduction in viral replication incubated for 13 days by Hoechst 33342 staining based microscopic analysis. The class given is functional, cell-based. Conditions: Human betaherpesvirus 5, ARPE-19, 312 h.
Data set [2] deals with Human betaherpesvirus 5. As to the kind of experiment: Antiviral activity against human Cytomegalovirus infected in human ARPE-19 cells assessed as reduction in viral replication incubated for 12 days by Hoechst 33342 staining based microscopic analysis. The data set is classed as functional, cell-based. The note with it: Human betaherpesvirus 5, ARPE-19, 288 h.
A short description of data set [3]: Selectivity index, ratio of CC50 for human MRC5 cells to IC50 for human Cytomegalovirus infected in human MRC5 cells incubated for 6 days. The class given is toxicity, cell-based. Conditions: time 6 day, read-out: Ratio CC50/IC50.
The test system of data set [4] is Human betaherpesvirus 5. As to the kind of experiment: Antiviral activity against human Cytomegalovirus infected in human MRC5 cells assessed as reduction in viral replication incubated for 6 days by Hoechst 33342 staining based microscopic analysis. The note with it: Human betaherpesvirus 5, MRC5, 144 h. The class given is functional, cell-based.
Data set [5] in a line: Selectivity index, ratio of CC50 for human MRC5 cells to IC50 for human Cytomegalovirus infected in human ARPE-19 cells incubated for 13 days. The data set is classed as toxicity, cell-based. The note with it: time 6 day, read-out: Ratio CC50/IC50.
Data set [6] can be described thus: Cytotoxicity against human MRC5 cells assessed as reduction in cell viability incubated for 6 days by Hoechst 33342 staining based microscopic analysis. Conditions: time 6 day.
Data set [7] is described as follows: Selectivity index, ratio of CC50 for human MRC5 cells to IC50 for human Cytomegalovirus infected in human ARPE-19 cells incubated for 10 days. The class given is toxicity, cell-based. Conditions: time 6 day, read-out: Ratio CC50/IC50.
The test system of data set [8] is Human betaherpesvirus 5. The experiment in a line: Antiviral activity against Human Cytomegalovirus infected in human MRC5 cells assessed as reduction in infection rate incubated for 6 days by Hoechst 33342 staining based microscopic analysis. The class given is functional, cell-based. Conditions: Human betaherpesvirus 5, MRC5, 144 h; read-out: IC50.
In data set [9] the test system is Human betaherpesvirus 5. As to the kind of experiment: Antiviral activity against human Cytomegalovirus infected in human ARPE-19 cells assessed as reduction in infection rate incubated for 10 days by Hoechst 33342 staining based microscopic analysis. Conditions: Human betaherpesvirus 5, ARPE-19, 240 h; read-out: IC50. The class given is functional, cell-based.

For data set [10], the system named is Human betaherpesvirus 5. As to the kind of experiment: Antiviral activity against human Cytomegalovirus harboring ANCHOR infected in human MRC5 cells assessed as reduction in infection rate at 0.15 to 0.625 uM incubated for 6 days by Hoechst 33342 staining based microscopic analysis relative to control. The class given is functional, cell-based. Conditions: dose microM 0.625-0.15, time 6.0 day.

Data set [11] has as its system Human betaherpesvirus 5. The experiment in a line: Antiviral activity against human Cytomegalovirus harboring ANCHOR infected in ARPE-19 cells assessed as reduction in replication by measuring UL44 expression at 0.6 to 0.15 uM by immunofluorescence B31assay. Conditions: dose microM 0.625-0.15, time 10.0 day. The data set is classed as functional, cell-based.
For data set [12], the system named is Human betaherpesvirus 5. The experiment in a line: Antiviral activity against human Cytomegalovirus infected in human ARPE-19 cells assessed as reduction in infection rate incubated for 12 days by Hoechst 33342 staining based microscopic analysis. The class given is functional, cell-based. Conditions: Human betaherpesvirus 5, ARPE-19, 288 h.
A short description of data set [13]: Selectivity index, ratio of CC50 for human MRC5 cells to IC50 for human Cytomegalovirus infected in human ARPE-19 cells incubated for 12 days. The note with it: time 6 day, read-out: Ratio CC50/IC50. The data set is classed as toxicity, cell-based.
Data set [14] can be described thus: Cytotoxicity against human MRC5 cells assessed as assessed as number of fluorescent nuclei incubated for 6 days by Hoechst 33342 staining based microscopic analysis. The data set is classed as cell-based. The note with it: time 6 day.
Data set [15] is described as follows: Cytotoxicity against human ARPE-19 cells assessed as assessed as number of fluorescent nuclei incubated for 6 days by Hoechst 33342 staining based microscopic analysis. The data set is classed as cell-based. The note with it: time 6 day.
For data set [16], the system named is Human betaherpesvirus 5. As to the kind of experiment: Antiviral activity against letermovir resistant Cytomegalovirus UL56 R369G infected in human MRC5 cells assessed as reduction in infection rate at 600 nM incubated for 6 days by Hoechst 33342 staining based microscopic analysis. The class given is functional, cell-based. The note with it: time 6.0 day.

A short description of data set [17]: Drug metabolism in human ARPE-19 cell culture at 10 uM incubated for 10 days. The class given is ADME. The note with it: arpe-19, 240 h, time 10 day.
Data set [18] in a line: Drug uptake in rabbit RK13 cells incubated for 24 hrs by Hoechst staining based microscopic analysis. The note with it: rk13, 24 h. The data set is classed as ADME, cell-based, Oryctolagus cuniculus.
Data set [19] deals with Human betaherpesvirus 5. As to the kind of experiment: Antiviral activity against ganciclovir resistant Cytomegalovirus UL54 D301N infected in human MRC5 cells assessed as reduction in viral DNA replication incubated for 6 days by Hoechst 33342 staining based microscopic analysis. The data set is classed as functional, cell-based. Conditions: time 6.0 day.
The test system of data set [20] is Human betaherpesvirus 5. As to the kind of experiment: Antiviral activity against ganciclovir resistant Cytomegalovirus UL54 D301N infected in human MRC5 cells assessed as reduction in infection rate incubated for 6 days by Hoechst 33342 staining based microscopic analysis. The class given is functional, cell-based. Conditions: time 6.0 day.

The source made the active and inactive calls. The calls are words filed in the database; no cut-off is given here.

Take `Fc1ccc(F)c(-c2c3nc(c4ccc([nH]4)c(-c4c(F)ccc(F)c4F)c4ccc([nH]4)c(-c4c(F)ccc(F)c4F)c4ccc2[nH]4)C=C3)c1F`: the IC50 is 2.3 µM in data set [1], 2.3 µM in [2] and 1.8 µM in [4]. Moreover, the selectivity ratio at 144 h was greater than 28 in [3] and greater than 21 in [5]. In addition, the CC50 at 144 h in data set [6] is greater than 50 µM.
Regarding `Fc1cc(F)c(F)c(-c2c3nc(c4ccc([nH]4)c(-c4c(F)c(F)cc(F)c4F)c4ccc([nH]4)c(-c4c(F)c(F)nc(F)c4F)c4ccc2[nH]4)C=C3)c1F`, the selectivity ratio at 144 h in [7] was 450; in data set [3], 37.8. Further, the figures for the IC50 in data set [8] and in data set [9] were 0.09 µM and 0.05 µM, respectively. Moreover, the outcome in data set [10] and in data set [11] was Active. The CC50 at 144 h in data set [6] came to 3.4 µM.
As for `Fc1cc(F)c(F)c(-c2c3nc(c4ccc([nH]4)c(-c4c(F)c(F)cc(F)c4F)c4ccc([nH]4)c(-c4c(F)c(F)cc(F)c4F)c4ccc2[nH]4)C=C3)c1F`, the IC50 in data set [8] is 1.04 µM; in data set [12] it was 0.16 µM. The selectivity ratio at 144 h was greater than 24 in data set [3] and greater than 312 in data set [13]. For the same molecule, the CC50 at 144 h was 3.4 µM in [14], 22.5 µM in [15] and 25.3 µM in data set [6].
`Fc1cc(F)c(F)c(-c2c3nc(c4ccc([nH]4)c(-c4c(F)c(F)cc(F)c4F)c4ccc([nH]4)c(-c4c(F)c(F)c(F)c(F)c4F)c4ccc2[nH]4)C=C3)c1F`: the selectivity ratio at 144 h in [7] is 416; in data set [3], 24.9. Also, the IC50 is 0.65 µM in data set [8] and 0.02 µM in data set [9]. Also, the result in data set [16], in data set [19] and in [20] was Active. The Drug metabolism entry in data set [17] is “Metabolite_Notdetected”. Besides, the Drug uptake result in data set [18] is given as “Active”. For the same molecule, the CC50 at 144 h in data set [6] came to 16.2 µM.

As a reminder, the IC50 is the concentration at which inhibition is half-maximal. Broadly, the CC50 is the concentration that lowers cell viability or growth by half.
